# Reference: patent US12060388B2, “Cell-penetrating peptides and methods of use thereof” (priority 2018, dated 2024)
# Columns and labels:
# HPV16 pseudovirus (PsV) = assay: Peptide inhibition of HPV16 PsV infection of HeLa-S3 cells, flow cytometry for HcRed; format: cell-based
# Source text: FIG. 18A (top) depicts sequences of L2 peptides. […] Amino acid substitutions in the CPP or RBS mutant peptides are shown in orange and blue, respectively. Bottom: RBS and flanking sequences of indicated HPV L2 proteins or DMT1-II. FIG. 18B depicts an inhibitory dose-response curve for P16/16 peptide. 5×10^4 HeLa-S3 in 24-well plates were pretreated with various concentrations of P16/16 for one hour prior to infection with HPV pseudovirus (PsV) at multiplicity of infection (MOI) of 1. Peptide was left in the medium for the duration of the experiment. Cells were assessed by flow cytometry to determine the fraction of cells expressing reporter protein HcRed at 48 hours post-infection (h.p.i.). […] FIG. 18C depicts 5×10^4 HeLa-S3 in 24-well plates were pretreated with 14 μM of the indicated peptide for one hour, followed by infection with HPV PSV at MOI of one. Peptides were left in the medium for the duration of the experiment. As a control, cells were incubated with the solution used to dissolve peptide. Forty-eight h.p.i., cells were assessed by flow cytometry to determine fraction of cells expressing reporter protein HcRed. […] For the comparison of P16/16 to P16/6A, P16/3R, and PDM/16 for HPV16 PsV, **, p<0.01; ***, p<0.001. […] FIG. 18D depicts inhibition of HPV infection of HaCaT cells. HaCaT keratinocytes were infected at MOI of 1 with HPV16 PsV in the presence and absence of 14 μM P16/16, and infectivity was assessed 48 h.p.i. by flow cytometry for HcRed fluorescence. FIG. 18E depicts inhibition of authentic HPV16. HeLa cells were infected with HPV16 harvested from organotypic cultures of human keratinocytes or with HPV16 PsV in the presence (grey bars) or absence (black bars) of P16/16. Successful infection by HPV16 and HPV16 PsV was assessed by quantitative reverse transcription-PCR (qRT-PCR) for expression of HPV early region and HcRed mRNA, respectively, and normalized to infection by the cognate virus in the absence of peptide. Background signal determined with non-cognate primers was <0.01%.
# To assess the effect of peptides on viral infection, 5×104 HeLa-S3 in 24-well plates were pretreated with peptides for one hour, followed by infection with wild-type HPV PsV at 37° C. at MOI of ˜1 or with mutant PsV containing an equivalent number of encapsidated reporter plasmids. Peptides were left in the medium for the duration of the experiment unless otherwise indicated. As a control, cells were incubated with the solution used to dissolve peptide. Cells were assessed by flow cytometry on a Stratedigm-13 flow cytometer to determine reporter protein expression at 48 h.p.i. unless otherwise indicated. In some experiments, peptides were added at various times after infection and were left in the medium for the duration of the experiment.
# HPV5 PsV = assay: Peptide inhibition of HPV5 PsV infection of HeLa-S3 cells, flow cytometry for HcRed; format: cell-based; details: 14 μM peptide, MOI of one, 48 h.p.i.
# Source text: FIG. 18A (top) depicts sequences of L2 peptides. […] Amino acid substitutions in the CPP or RBS mutant peptides are shown in orange and blue, respectively. Bottom: RBS and flanking sequences of indicated HPV L2 proteins or DMT1-II. FIG. 18B depicts an inhibitory dose-response curve for P16/16 peptide. 5×10^4 HeLa-S3 in 24-well plates were pretreated with various concentrations of P16/16 for one hour prior to infection with HPV pseudovirus (PsV) at multiplicity of infection (MOI) of 1. Peptide was left in the medium for the duration of the experiment. Cells were assessed by flow cytometry to determine the fraction of cells expressing reporter protein HcRed at 48 hours post-infection (h.p.i.). […] Forty-eight h.p.i., cells were assessed by flow cytometry to determine fraction of cells expressing reporter protein HcRed. […] HaCaT keratinocytes were infected at MOI of 1 with HPV16 PsV in the presence and absence of 14 μM P16/16, and infectivity was assessed 48 h.p.i. by flow cytometry for HcRed fluorescence. […] Successful infection by HPV16 and HPV16 PsV was assessed by quantitative reverse transcription-PCR (qRT-PCR) for expression of HPV early region and HcRed mRNA, respectively, and normalized to infection by the cognate virus in the absence of peptide. Background signal determined with non-cognate primers was <0.01%. […]
# EEA1 / HPV16 L1 = assay: Proximity ligation assay for L1 and EEA1 in peptide-treated infected cells; format: cell-based; details: 14 μM
# Method: HeLa-S3 cells grown on glass coverslips for 16 hours were incubated for one hour with or without 14 μM P16/16, followed by mock-infection or infection with HPV16 PSV at MOI of 200. 8 and 16 h.p.i., cells were processed for PLA with anti-L1 antibody and an antibody recognizing EEA1 (FIG. 20A) or TGN46 (FIG. 20B). PLA was performed as in FIG. 19B. The PLA signal for EEA1/L1 was normalized to that of cells infected with HPV16 PsV in the absence of peptide at 8 h.p.i., while the TGN46/L1 signal was normalized to untreated cells at 16 h.p.i.
# For the proximity ligation assay, after an hour incubation with peptides, HeLa-S3 cells were infected with wild-type PSV at MOI of 200 or mutant PsV containing the same number of reporter plasmid genomes. Infected cells were fixed at 8 or 16 h.p.i., permeabilized, and incubated with 1:100 dilutions of anti-L1 antibody and an antibody recognizing EEA1, TGN46, or VPS35. […] The nuclei were stained by using Abcam fluorescence mounting medium with DAPI and images were acquired by a Leica SP5 inverted fluorescence microscope. […] The images were processed by Fiji and quantitatively analyzed by BlobFinder software to measure total fluorescence intensity in each sample. The average fluorescence intensity per cell in each sample was normalized to the control sample as indicated in each experiment. […]
# retromer (Vps35) = biological target: T1, retromer (Vps35) (Homo sapiens, UniProt O75436+Q96QK1); assay: Biotinylated peptide pull-down from HeLa S3 lysate, blot for Vps35; format: binding; details: streptavidin pull-down
# T1 construct: endogenous in cells; host or cells: HeLa S3 lysate (RIPA-MOPS buffer)
# Method: For peptide pull-down experiments, N-terminal biotinylated L2 peptides (sequences shown in FIG. 2A) were purchased from ABClonal Science (Woburn, MA) at >95% purity. L2 wild-type was dissolved initially in 30% acetic acid and DMSO (˜70 μl each), and then dissolved in sterile deionized water with 0.01% sodium azide. L2-6A, L2-3R and L2-DM were initially solubilized in a small amount of DMSO (˜70-80 μl) and then dissolved in sterile deionized water with 0.01% sodium azide. Peptide stocks (5 mg/ml) were aliquoted and stored at −20° C. HeLa S3 cells plated in six-well plates were lysed at ˜80% confluency with 500 μl RIPA-MOPS buffer (20 mM morpholinepropanesulfonic acid [pH 7.0], 150 mM NaCl, 1% Nonidet P-40, 1 mM EDTA, 1% deoxycholic acid, 0.1% sodium dodecyl sulfate [SDS]) supplemented with protease inhibitors (1×HALT protease and phosphatase inhibitor cocktail (Thermo Scientific, Waltham, MA; #78443)). The lysate was centrifuged at 14,000 rpm for 20 min, and the supernatant was incubated with 10 μg of a biotinylated peptide for two h at 4° C. Fifty μl of streptavidin agarose beads slurry (Pierce, Rockford, IL; #20349) was added, and the mixture was gently rocked for 45 min at 4° C. […] Samples were analyzed by SDS-PAGE and immunoblotting with antibody recognizing Vps35 (Abcam, Cambridge, MA; ab57632).
smiles,measurement,setting,value
CC[C@H](C)[C@H](NC(=O)[C@@H](NC(=O)[C@H](Cc1ccc(O)cc1)NC(=O)[C@H](CCC(N)=O)NC(=O)[C@@H]1CCCN1C(=O)[C@H](CO)NC(=O)[C@@H](N)CS)[C@@H](C)O)C(=O)N[C@H](C(=O)N[C@@H](C)C(=O)N[C@@H](CC(=O)O)C(=O)N[C@@H](C)C(=O)NCC(=O)N[C@@H](CC(=O)O)C(=O)N[C@@H](Cc1ccccc1)C(=O)N[C@@H](Cc1ccc(O)cc1)C(=O)N[C@@H](CC(C)C)C(=O)N[C@@H](Cc1c[nH]cn1)C(=O)N1CCC[C@H]1C(=O)N[C@@H](CO)C(=O)N[C@@H](Cc1ccc(O)cc1)C(=O)N[C@@H](Cc1ccc(O)cc1)C(=O)N[C@@H](CCSC)C(=O)N[C@@H](CC(C)C)C(=O)N[C@@H](CCCNC(=N)N)C(=O)N[C@@H](CCCCN)C(=O)N[C@@H](CCCNC(=N)N)C(=O)N[C@@H](CCCNC(=N)N)C(=O)N[C@@H](CCCCN)C(=O)N[C@@H](CCCNC(=N)N)C(=O)O)[C@@H](C)CC [P16/16],time of peptide addition for effective inhibition,HPV16 pseudovirus (PsV); 14 μM peptide added at time of infection or at indicated h.p.i.,needed to be added during the first few hours of infection
same,persistence of inhibition,"HPV16 pseudovirus (PsV); 14 μM peptide left in medium, 48, 72, or 96 h.p.i.",at least 96 h.p.i.
same,inhibition of HPV16 PsV infection,"HPV16 pseudovirus (PsV); 14 μM peptide, MOI of 1, 48 h.p.i.",statistically significant (p<0.01) inhibition
same,infection after removal of peptide,HPV16 pseudovirus (PsV); peptide removed from the medium after 24 hours,infection was not restored over the next three days
same,"reduction in infection, dose-response","HPV16 pseudovirus (PsV); various concentrations of peptide, MOI of 1, 48 h.p.i.",dose-dependent reduction in infection
same,inhibition of HPV5 PsV infection,HPV5 PsV,potently inhibited infection
same,EEA1/L1 PLA at 8 h.p.i.,"EEA1 / HPV16 L1; MOI of 200, 8 h.p.i.",arrival of HPV at the endosome regardless of the presence of the peptide
same,EEA1/L1 PLA at 16 h.p.i.,"EEA1 / HPV16 L1; MOI of 200, 16 h.p.i.",striking accumulation of the virus in the endosome
same,retromer binding of L2 peptide in vitro,retromer (Vps35),competent for retromer binding in vitro
